The source of these data is PMC9607343, “Synthesis, Conformational Analysis and Evaluation of the 2-aryl-4-(4-bromo-2-hydroxyphenyl)benzo[1,5]thiazepines as Potential α-Glucosidase and/or α-Amylase Inhibitors” (Molecules, 2022).

The target of data set [1] is α-amylase. The data set is described as follows: In vitro α-amylase inhibitory assay (CNP-G3 substrate). In kind it is biochemical. As to conditions: three independent experiments; acarbose positive control; read-out: IC50 Values (µM ± SD) α-Amylase. On the procedure:
(§1) The IC50 values (μM) represented in Table 3 were calculated from the log dose-inhibition curves and are expressed as means ± standard deviations (SD) of three independent experiments. […] Inhibitors of α-glucosidase with mild inhibitory activity against α-amylase, on the other hand, constitute one of the major therapeutic strategies for the treatment of T2DM.
The α-amylase inhibitory assay was performed in 96-well microplates using a final volume of 200 μL, following a procedure described in the literature study. The enzyme assay was performed with a phosphate buffer ([…]) containing 0.02% NaN3 and adjusted to pH 6.0 with 2.0 M phosphoric acid. […] The enzyme solution (2.0 u/mL α-amylase, 5 µL); phosphate buffer ([…], pH 6.0; 175 µL); and 10 µL test sample were incubated at 37 °C for 10 min. After pre-incubation, 10 µL of 10 mM of 2-chloro-4-nitrophenyl-α-D-maltotrioside (CNP-G3) was added to each of the wells containing reaction mixtures to initiate the reaction. The absorbance was measured at 405 nm using a Bio-Rad microplate reader. The IC50 values were calculated using the AAT Bioquest online calculator.

Data set [2] addresses α-glucosidase. The data set is described as follows: In vitro α-glucosidase inhibitory assay (PNP-G substrate). Format: biochemical. As to conditions: for IC50: three independent experiments, acarbose positive control, read-out: IC50 Values (µM ± SD) α-Glucosidase; for SI (selectivity index): SI = IC50(α-glucosidase)/IC50(α-amylase). On the procedure: as §1
All the tests and analyses were performed in triplicates following a literature method described in our previous study. The stock solutions of the test compounds (200 µM) were prepared in DMSO, followed by dilution with a 100 mM phosphate buffer to obtain the concentrations of 100 µM. […] The enzyme solution (0.48 u/mL α-glucosidase, 17 µL); phosphate buffer (100 mM, pH 6.8; 50 µL); and test sample in DMSO (17 µL) were incubated at 37 °C for 10 min. After pre-incubation, 17 µL of 2 mM p-nitrophenyl-α-d-glucopyranoside (PNP-G) was added to each of the wells containing reaction mixtures to initiate the reaction. The absorbance was measured at 405 nm using a Bio-Rad microplate reader. The IC50 concentration was calculated using the AAT Bioquest online calculator.

The molecule `Oc1ccc(Br)cc1C1=Nc2ccccc2SC(c2ccccc2)C1` (centres unmarked) [Compound 2a, 4-Bromo-2-((E)-2,3-dihydro-2-phenylbenzo[b][1,5]thiazepine-4-yl)phenol] displayed a melting point of 128 to 137 °C. Besides, the IC50 in data set [1] was found to be 20.87 ± 0.08 µM. The 50% inhibitory concentration (IC50) in data set [2] came out at 6.7 ± 0.15 µM.
The molecule `Oc1ccc(Br)cc1C1=Nc2ccccc2SC(c2ccc(F)cc2)C1` (centres unmarked) [Compound 2b, 4-Bromo-2-((E)-2,3-dihydro-2-(4-fluorophenyl)benzo[b][1,5]thiazepine-4-yl)phenol] had a melting point of 128 to 134 °C. In addition, the IC50 in data set [1] worked out at 15.85 ± 0.05 µM. Also, in data set [2], the “SI (selectivity index)” value is recorded as 1.09 and the IC50 came to 17.2 ± 0.07 µM.
On the same counts, the results for `Oc1ccc(Br)cc1C1=Nc2ccccc2SC(c2ccc(Cl)cc2)C1` (centres unmarked) [Compound 2c, 4-Bromo-2-((E)-2,3-dihydro-2-(4-chlorophenyl)benzo[b][1,5]thiazepine-4-yl)phenol] are 167 to 172 °C, 22.86 ± 0.04 µM, 0.12 and 2.69 ± 0.27 µM.
On to `COc1cccc(C2CC(c3cc(Br)ccc3O)=Nc3ccccc3S2)c1` (centres unmarked) [Compound 2d, 4-Bromo-2-((E)-2,3-dihydro-2-(3-methoxyphenyl)benzo[b][1,5]thiazepine-4-yl)phenol], for which the melting point lay within 161 to 167 °C. Moreover, in data set [1], the IC50 amounted to 46.16 ± 0.31 µM. Also, in data set [2], the “SI (selectivity index)” value came out at 0.29 and the IC50 worked out at 13.2 ± 1 µM.
On the same counts, the results for `COc1ccc(C2CC(c3cc(Br)ccc3O)=Nc3ccccc3S2)cc1` (centres unmarked) [Compound 2e, 4-Bromo-2-((E)-2,3-dihydro-2-(4-methoxyphenyl)benzo[b][1,5]thiazepine-4-yl)phenol] are 131 to 136 °C, 55.14 ± 0.19 µM, 0.29 and 15.87 ± 0.13 µM.
On the same counts, the results for `CC(C)c1ccc(C2CC(c3cc(Br)ccc3O)=Nc3ccccc3S2)cc1` (centres unmarked) [Compound 2f, 4-Bromo-2-((E)-2,3-dihydro-2-(4-isopropylphenyl)benzo[b][1,5]thiazepine-4-yl)phenol] are 126 to 131 °C, 9.71 ± 0.5 µM, 0.67 and 6.54 ± 0.11 µM.

What is called melting point is the temperature of the solid-liquid transition. As usually defined, the IC50 is the concentration that gives 50% inhibition.
